Blank lines part the entries; values can stand above or below the compound they belong to.
Assays:
rat aortic rings = assay: Relaxation of rat thoracic aorta rings precontracted with phenylephrine; settings: for concentration at which relaxation effect is shown: Ru-drug under UV light, DEA/NO control drug
Protocol: Male rats (200-250 g; Sprague-Dawley) were stunned and killed by cervical dislocation. The thoracic aortas were carefully removed, cleaned of connective tissue and cut into 3-4 ring segments of approximately 4 mm in length. Aortic rings were mounted in 10 mL organ baths containing Krebs-bicarbonate buffer (composition (mM): Na^+ 143; K^+ 5.9; Ca^2+ 2.5; Mg^2+ 1.2; Cl^− 128; HCO3^− 25; HPO4^2− 1.2; SO4^2− 1.2; D-glucose 11) maintained at 37° C. and gassed with 95% O2/5% CO2. Tension was initially set at 1 g and reset at intervals following an equilibrium period of 1 hour during which time fresh Krebs-bicarbonate buffer was replaced every 15-20 minutes. After equilibrium, the rings were primed with KCl (4.8×10^−2 M) before a supramaximal concentration of phenylephrine (PE; 10^−6 M) was added. Once this response had stabilized, acetylcholine (ACH; 10^−6M) was added to the bath to assess the integrity of endothelium of WT vessels. If the contractions to PE were not maintained, or relaxations greater than 50% of the PE-induced tone to ACH were not observed, the tissues were discarded.
Tissues were then washed for 30 minutes (by addition of fresh Krebs-bicarbonate buffer at 15 minutes intervals) after which cumulative concentrations of PE (10^−9-10^−6 M) were added to the organ bath. The tissues were then washed over 60 minutes to restore basal tone before contracting to approximately 80% of the maximum PE-induced response. Once a stable response to PE was achieved, cumulative concentration-response curves to the NO-donors were constructed in the presence and absence of light ([…]) and the soluble […] ODQ ([…]).

[1] = Photorelease (photodissociation) of NO from the metal nitrosyl in solution under illumination; format: physicochemical; settings: for type of light that releases NO: in DMF, UV-cut filters
From the text: FIG. 7(A) provides a plot of KNO values versus light power. Increase in A550 of a solution of [(PaPy3)Fe(NO)](ClO4)2 in MeCN upon illumination with a 60 W tungsten lamp (Patra et al., Inorg Chem, 42:6812-6823, 2003), KNO (×10^3 s^−1)=5.60±0.014.
FIG. 8(C) provides a plot of the electronic absorption spectrum of [(bpb)Ru(NO)(Cl)] (broken line) and [(Me2bqb)Ru(NO)(Cl)] (solid line) in DMF. Both nitrosyls are photolabile.
(§1) Dashed line: met-Mb; dash-dot line: reduced Mb; dotted line: a mixture of [(PaPy3)Ru(NO)](BF4)2 and reduced Mb (1.5:1) under ordinary light (20 min); solid line: same mixture exposed to UV (30 s). […] Dash-dot line: oxidized and dash line: reduced enzyme; dotted line: reduced enzyme plus [(PaPy3)Ru(NO)](BF4)2 under ordinary light (20 min); solid line: same mixture exposed to UV light for 30 s (Patra and Mascharak, Inorg Chem, 42:7363-7365, 2003, herein incorporated by reference).
As described herein, nitrosyls like [Fe(PaPy3)(NO)](CIO4)2 and [Mn(PaPy3)(NO)](BF4)2 are converted into the corresponding solvato species [M(PaPy3)(solv)]^2+ following NO loss. Clean isosbestic points in the multiple trace spectra (e.g., FIG. 6B and FIG. 6C) indicate that the [M(PaPy3)(NO)]^2+→[M(PaPy3)(solv)]^2+ transformation is likely devoid of other intermediates. […] Preliminary actinometric measurements have afforded a quantum yield of 0.12 for the light reaction of [Ru(PaPy3)(NO)](BF4)2 in water. Collectively, these properties indicate that the nitrosyl complexes disclosed herein are good light-induced NO donors.
The light characteristics of any one of these metal nitrosyls can be changed (tuned) with minor alterations in the ligand frames such as changing a donor atom or ring size. This is a tremendous advantage of the present approach, thereby freeing users of this technology from the light requirements of photoactive nitrosyls of the prior art, which hereto have been found serendipitously. […] (BF4)2 releases NO only under UV light (λ<350 nm).

papain = biological target: T1, papain (Carica papaya, UniProt P00784); assay: Papain inhibition under light (l-BApNA substrate); format: biochemical; settings: 3 mM nitrosyl 1 mL + papain 3 mg/mL 1 mL, 50 W tungsten lamp 3 min, 25° C., pH 6.2
T1 sequence (P00784 134-345): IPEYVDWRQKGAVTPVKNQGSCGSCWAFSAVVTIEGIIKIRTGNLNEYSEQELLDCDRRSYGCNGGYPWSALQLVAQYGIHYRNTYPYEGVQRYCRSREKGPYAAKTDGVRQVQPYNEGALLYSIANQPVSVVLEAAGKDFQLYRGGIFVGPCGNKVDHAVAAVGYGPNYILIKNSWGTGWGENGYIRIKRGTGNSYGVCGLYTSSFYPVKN
Protocol: Twice-crystallized papain was activated by stirring the enzyme in 50 mM phosphate buffer (pH 6.2) containing 10 mM dithiothreitol (DTT) for 24 h. The solution was then passed through a Pharmacia 20 mL desalting column equipped with a BioRad FPLC absorbance/electrical-conducting detector at 4° C. The activated protein (devoid of DTT) eluted from the column in 2 minutes at a flow rate of 2 mL/min, and was subsequently lyophilized and stored at −20° C.
Papain activity was determined spectrophotometrically at 410 nm by monitoring the formation of p-nitroaniline from the substrate Nα-Benzoyl-l-arginine-p-nitroanilide (l-BApNA). A 1.5 mM stock solution of l-BApNA was prepared in 50 mM phosphate buffer (pH 6.2, 1 mM EDTA, 0.1 M NaCl) and stored at room temperature. A 4.6 μM stock solution of active papain was also prepared in 50 mM phosphate buffer (pH 6.2, 1 mM EDTA, 0.1 M NaCl) and stored at 0° C. Finally, a freshly prepared 3.0 mM stock solution of 1 was prepared in 50 mM phosphate buffer (pH 6.2, 1 mM EDTA, 0.1 M NaCl) and stored in the dark.
[…] The mixture was then exposed to a 50 W tungsten bulb (Afshar at al., Inorg Chem, 43:5736-5743, 2004) for 60 s and 350 μL of the substrate was quickly added. The residual enzyme activity was monitored at 25° C. […] After each exposure, 350 μL of the substrate was added to the solution and the residual enzyme activity was monitored at 25° C. […]

reduced Mb = assay: Light-triggered NO transfer to reduced myoglobin; format: biochemical; settings: aqueous solution, low intensity UV light 30 s, nitrosyl:Mb 1.5:1
Protocol: as §1
(§2) When this process is repeated in presence of reduced Mb, the 434 nm Soret band of reduced Mb is rapidly changed to 420 nm indicating formation of the Mb-NO adduct (FIG. 9B). Clearly [Ru(PaPy3)(H2O)](BF4)2 acts as an efficient NO donor that is activated by light. Similar results have been obtained with cytochrome c oxidase. Exposure of a mixture of [Ru(PaPy3)(H2O)](BF4)2 and reduced cytochrome c oxidase to UV light rapidly generated the NO adduct (Soret band at 428 nm, FIG. 9C). […] Other compounds according to the disclosure herein are known to, or are predicted to, have similar results with regard to being able to facilitate NO transfer to Mb and Hb.

[2] = system: rat aortic smooth muscle cells; assay: cGMP generation in cultured rat aortic smooth muscle cells; format: cell-based
Protocol: Primary rat aortic smooth muscle cells were cultured and exposed to increasing log doses of Ru—NO with and without a 5 minute exposure to low-intensity UV light (λmax=254 nm) followed by a 10 minute incubation. The cells were then lysed and the cGMP production was assayed Cyclic GMP accumulation was measured using a commercially available ELISA kit (Amersham Biosciences) as per the manufacturer instructions.

reduced cyt c oxidase = assay: Light-triggered NO transfer to reduced cytochrome c oxidase; format: biochemical; settings: low intensity UV light 30 s
Protocol: as §1, §2

Compound: CCN(CC)/[N+]([O-])=N/[O-].[Na+] [DEA/NO, reference compound]
concentration at which relaxation effect is shown (rat aortic rings): 0.01 µM

Compound: [(Me2bqb)Ru(NO)(Cl)]
type of light that releases NO [1]: releases NO upon illumination with visible light

wavelength of light under which NO is released [1]: ~500 nm
Compound: [(PaPy3)Fe(NO)](ClO4)2
KNO (rate of NO loss) ([1]; in MeCN, 60 W tungsten lamp): 5.60±0.014 ×10^3 s^−1

Compound: [(PaPy3)Mn(NO)]ClO4
papain enzymatic activity after exposure (papain): completely eliminating the enzymatic activity

wavelength of light under which NO is released [1]: < 350 nm
quantum yield of the light reaction ([1]; in water, preliminary actinometric measurements): 0.12
Compound: [(PaPy3)Ru(NO)](BF4)2
light dependence of relaxation effect (rat aortic rings): only under exposure to light
concentration at which relaxation effect is shown (rat aortic rings): 10 µM
relaxation compared with conventional NO donor (rat aortic rings; UV light): comparable to that observed upon treatment of the tissue with a conventional NO donor (DEA/NO)
contraction of tissue when the light was turned off (rat aortic rings; light turned off): ~25%
formation of Mb-NO adduct (reduced Mb): conversion of reduced Mb to Mb-NO
increase in cGMP production ([2]; 0.1 mM, low-intensity UV light (λmax=254 nm) 5 min): 13 fold
increase in cGMP concentration in the dark ([2]; dark): not observed in the dark
formation of cyt c oxidase NO-adduct (reduced cyt c oxidase): conversion of reduced cyt c oxidase to its NO-adduct

Compound: [(bpb)Ru(NO)(Cl)]
type of light that releases NO [1]: releases NO upon illumination with UV light
